In publication PMC7321072, “Bioactive Potential of Extracts of Labrenzia aggregata Strain USBA 371, a Halophilic Bacterium Isolated from a Terrestrial Source” (Molecules, 2020):
Like-named read-outs stand apart in the source and are kept apart here.

How the values were obtained:
Assay type in all cases: cell-based
[1] = system: MCF-7 (human mammary adenocarcinoma); assay: Cytotoxic activity, neutral red assay, MCF-7; details: mean ± SEM
Description: (§1) The isolated compounds were resuspended in dimethyl sulfoxide (DMSO) to a final concentration of 25 mg/mL (stock solution), subsequent dilutions between 250 and 31 μg/mL were used for cytotoxicity assays. The cytotoxic activity was determined by neutral red assay, initially against the adherent cell lines 4T1 (mouse mammary tumor) and MCF-7 (human mammary adenocarcinoma) followed by H17 y TSA (murine breast cancer), MES SA PGP (+) y MES SA PGP (–) (human uterus sarcome), B16 (murine melanoma), MCA 38 (murine colon), 3T3 (murine fibroblats) y K562-ATCC, U937 y HL-60/MX2 (myeloid acute leukemia cell line) as described by Díaz-Cárdenas et al., 2017 [15]. When cultures reached a confluence of 80%, cells were passaged and counted in a Neubauer chamber. Cell viability was estimated in triplicate using the trypan blue assay. The percentage of viability was calculated as absorbance of the vehicle/absorbance of the treatment per 100. Inhibitory concentration 50 (IC50) values were defined as the concentration of the extracts that generated 50% inhibition of tumor cell growth. IC50 values were calculated with three or four parameter nonlinear regression curves using GraphPad Prism software (GraphPad Software, Inc., San Diego, CA, USA). IC50 values are presented as the mean ± standard error of mean (SEM). The selectivity index was calculated using the formula: IC50 Fibroblasts/IC50 tumor cell. A potential against tumor cell lines was considered when the selectivity was greater than 1.
(§2) The solvent used in the reconstitution of the extract (DMSO) was evaluated as a negative control for each test in the same volume as the extracts. Doxorubicin at a maximum concentration of 5 μM was used as a positive control.

[2] = system: 4T1 (mouse mammary tumor); assay: Cytotoxic activity, neutral red assay, 4T1; details: mean ± SEM
Description: as §1, §2

[3] = system: MES–SA/DX5P-Pgp (+) (human uterus sarcome); assay: Cytotoxic activity, neutral red assay, MES-SA/DX5 Pgp (+)
Description: as §1, with “Inhibitory concentration 50 (IC50) values were defined as the concentration of the extracts that generated 50% inhibition of tumor cell growth.” left out, “IC50 values are presented as the mean ± standard error of mean (SEM).” left out, “A potential against tumor cell lines was considered when the selectivity was greater than 1.” left out
(§3) The solvent used in the reconstitution of the extract (DMSO) was evaluated as a negative control for each test in the same volume as the extracts. […]

[4] = system: 3LL (lung cancer); assay: Cytotoxic activity, neutral red assay, 3LL; details: mean ± SEM
[5] = system: B16 (murine melanoma); assay: Cytotoxic activity, neutral red assay, B16; details: mean ± SEM, read-out: Cytotoxic Activity of Fractions IC50
Description: as §1, with “Inhibitory concentration 50 (IC50) values were defined as the concentration of the extracts that generated 50% inhibition of tumor cell growth.” left out, “IC50 values are presented as the mean ± standard error of mean (SEM).” left out, “A potential against tumor cell lines was considered when the selectivity was greater than 1.” left out
as §3

[6] = system: 4T1 H17 (murine breast cancer, high ALDH expression); assay: Cytotoxic activity, neutral red assay, 4T1 H17; details: mean ± SEM
Description: as §1, with “Inhibitory concentration 50 (IC50) values were defined as the concentration of the extracts that generated 50% inhibition of tumor cell growth.” left out, “IC50 values are presented as the mean ± standard error of mean (SEM).” left out, “A potential against tumor cell lines was considered when the selectivity was greater than 1.” left out
as §3

[7] = system: K562 (myeloid acute leukemia); assay: Cytotoxic activity, neutral red assay, K562
Description: as §1, with “Inhibitory concentration 50 (IC50) values were defined as the concentration of the extracts that generated 50% inhibition of tumor cell growth.” left out, “IC50 values are presented as the mean ± standard error of mean (SEM).” left out, “A potential against tumor cell lines was considered when the selectivity was greater than 1.” left out
as §3

[8] = system: U937 (myeloid acute leukemia); assay: Cytotoxic activity, neutral red assay, U937
Description: as §1, with “Inhibitory concentration 50 (IC50) values were defined as the concentration of the extracts that generated 50% inhibition of tumor cell growth.” left out, “IC50 values are presented as the mean ± standard error of mean (SEM).” left out, “A potential against tumor cell lines was considered when the selectivity was greater than 1.” left out
as §3

[9] = system: TSA (murine breast cancer); assay: Cytotoxic activity, neutral red assay, TSA; details: mean ± SEM, read-out: Cytotoxic Activity of Fractions IC50
Description: as §1, with “Inhibitory concentration 50 (IC50) values were defined as the concentration of the extracts that generated 50% inhibition of tumor cell growth.” left out, “IC50 values are presented as the mean ± standard error of mean (SEM).” left out, “A potential against tumor cell lines was considered when the selectivity was greater than 1.” left out
as §3

[10] = system: MCA 38 (murine colon); assay: Cytotoxic activity, neutral red assay, MCA 38; details: mean ± SEM
Description: as §1, with “Inhibitory concentration 50 (IC50) values were defined as the concentration of the extracts that generated 50% inhibition of tumor cell growth.” left out, “IC50 values are presented as the mean ± standard error of mean (SEM).” left out, “A potential against tumor cell lines was considered when the selectivity was greater than 1.” left out
as §3

[11] = system: 3T3 (murine fibroblast); assay: Cytotoxic activity, neutral red assay, 3T3 normal fibroblasts; details: 3T3, murine fibroblast (normal cells); mean ± SEM; read-out: Cytotoxic Activity of Fractions IC50
Description: as §1, with “Inhibitory concentration 50 (IC50) values were defined as the concentration of the extracts that generated 50% inhibition of tumor cell growth.” left out, “IC50 values are presented as the mean ± standard error of mean (SEM).” left out, “A potential against tumor cell lines was considered when the selectivity was greater than 1.” left out
as §3

[12] = listed as compound 1, read-out: Cytotoxic Activity of Fractions IC50
[13] = read-out: Cytotoxic Activity of Fractions IC50

| SMILES | IC50 [1] | IC50 ([1]; listed as compound 2) | IC50 [2] | IC50 ([2]; listed as compound 2) | IC50 ([1]; listed as compound 1) | Selectivity Index (SI) ([3]; IC50 fibroblasts (3T3)/IC50 MES-SA/DX5 Pgp (+)) | IC50 ([3]; MES-SA/DX5 Pgp (+), human uterus sarcoma, mean ± SEM, read-out: Cytotoxic Activity of Fractions IC50) | IC50 [4, 12] | IC50 [4, 13] | IC50 ([2]; listed as compound 1) | IC50 [5] | IC50 [6, 12] | IC50 [6, 13] | cytotoxic activity (in words) [7] | cytotoxic activity (in words) [8] | IC50 [9] | IC50 [10, 12] | IC50 [10, 13] | IC50 [11] |
| --- | --- | --- | --- | --- | --- | --- | --- | --- | --- | --- | --- | --- | --- | --- | --- | --- | --- | --- | --- |
| O=C1N[C@@H](Cc2ccc(O)cc2)C(=O)N[C@H]1Cc1ccccc1 [Compound 2, cyclo (L-Tyr-L-Phe)] | 890.5 ± 3.45 µM | > 250 µM | 875.9 ± 5.14 µM | > 250 µM |  |  |  |  |  |  |  |  |  |  |  |  |  |  |  |
| O=C1N[C@@H](Cc2ccc(O)cc2)C(=O)N2CCC[C@@H]12 [Compound 1, cyclo (L-Pro-L-Tyr)] | 87.7 ± 2.32 µM |  | 57.1 ± 2.11 µM |  | < 88 µM | 1.39 | 225.3 ± 1.23 µM | < 51.7 µM | 51.7 ± 0.55 µM | < 88 µM | 80.9 ± 3.67 µM | < 40 µM | 40.4 ± 1.94 µM | no activity was detected | no activity was detected | 197 ± 4.18 µM | < 40 µM | 29.9 ± 1.55 µM | 314 ± 3.41 µM |
